Where two headings read alike, the source gives them in different places.
Columns and labels:
HeLa = test: MTT cytotoxicity assay, HeLa cells, 48 h; assay type: cell-based; settings: Homo sapiens, read-out: Cytotoxicity (IC50, μM) HeLa
Procedure: (§1) The cytotoxicity of the target compounds was evaluated via MTT assay; A549, HeLa, HepG2, and WI-38 were selected for the experiment; and the selected cell lines were purchased from Lanzhou Weihuan Biotechnology Development Co., Ltd. All cell lines were maintained in RPMI-1640 medium supplemented with 10% fetal calf serum under the environment of 5% CO2 concentration and 37°C. The incubated tumor cells were seeded in the prepared 96-well plates, respectively, to make them attach for 12 h. Afterward, the cells were processed with the synthesized compounds with different concentrations as well as fascaplysin as the reference group for 48 h. After 48 h, 10 μl of MTT solution (5 mg/ml in PBS) was added into each well and incubated for 4 h. Then, the medium was removed and 100 μl DMSO was added to dissolve the blue-colored formazan. The absorbance was detected at 570 nm by microplate reader to calculate the inhibition rate (%) and the IC50 was defined using GraphPad Prism Software (version 5.02) (shown in Table 1).

[1] = MTT cytotoxicity assay, normal cells WI-38, 48 h; assay type: cell-based; settings: human
Procedure: as §1

CDK4/CycD3 = target: T1, CDK4/CycD3 (Homo sapiens, UniProt P11802); test: CDK4 kinase inhibition assay (mobility shift assay); assay type: biochemical; settings: mean of three independent experiments
T1 construct: purchased Cama
Procedure: In this study, the inhibitory activities of the synthesized compounds against CDK4/CycD3 were also evaluated using mobility shift assay, and fascaplysin was used as the positive control compound. CDK4/CycD3 was from Cama, kinase substrate peptide was from GL, and fascaplysin was from Selleckchem. First, the kinase base buffer should be prepared (50.0 mmol/L HEPES, pH 7.5, 5 mM MgCl2, 1 mmol DTT, 0.0015% Brij-35). Second, 50 μg CDK4 kinase was added to the kinase base buffer to prepare the kinase solution. The kinase base buffer was used to prepare ATP and substrate peptide solutions, and the obtained solutions were mixed. Third, the synthesized compounds as well as the fascaplysin were diluted with DMSO to the desired concentrations. Fourth, the reaction mixture was incubated at 30°C for 40 min, and 25 μl stop buffer was added to stop the reaction. Finally, conversion was read by Caliper, and GraphPad Prism 5.0 was used to calculate the IC50 values of the compounds against enzyme bioactivities (Table 2).

A549 = test: MTT cytotoxicity assay, A549 cells, 48 h; assay type: cell-based; settings: Homo sapiens, read-out: Cytotoxicity (IC50, μM) A549
Procedure: as §1

HepG2 = test: MTT cytotoxicity assay, HepG2 cells, 48 h; assay type: cell-based; settings: Homo sapiens, read-out: Cytotoxicity (IC50, μM) HepG2
Procedure: as §1

[2] = MTT assay, three independent experiments
[3] = WI-38 cells (normal cell line), normal cell line, MTT assay, 48 h, three independent experiments, read-out: Cytotoxicity (IC50, μM) WI-38
[4] = A549, MTT assay, 48 h, three independent experiments
[5] = HepG2, MTT assay, 48 h, three independent experiments

T1 sequence (P11802 whole entry): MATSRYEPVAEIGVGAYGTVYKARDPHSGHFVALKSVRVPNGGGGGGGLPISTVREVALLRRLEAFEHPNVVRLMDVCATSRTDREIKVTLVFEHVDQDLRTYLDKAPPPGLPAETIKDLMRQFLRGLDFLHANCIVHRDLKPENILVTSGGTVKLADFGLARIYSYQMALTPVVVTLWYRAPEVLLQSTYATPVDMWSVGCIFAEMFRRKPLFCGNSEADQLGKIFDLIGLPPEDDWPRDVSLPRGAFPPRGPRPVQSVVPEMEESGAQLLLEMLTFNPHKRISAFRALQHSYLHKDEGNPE
T1 sequence (P30281 whole entry partner): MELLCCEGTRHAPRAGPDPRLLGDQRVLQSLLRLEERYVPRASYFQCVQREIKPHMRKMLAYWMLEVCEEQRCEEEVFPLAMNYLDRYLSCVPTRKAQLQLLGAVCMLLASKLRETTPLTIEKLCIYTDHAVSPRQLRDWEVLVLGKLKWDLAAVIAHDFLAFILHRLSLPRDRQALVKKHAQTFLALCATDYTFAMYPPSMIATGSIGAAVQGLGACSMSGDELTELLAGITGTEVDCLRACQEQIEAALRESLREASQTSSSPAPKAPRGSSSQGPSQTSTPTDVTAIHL

| Structure (SMILES) | IC50 (CDK4/CycD3) [µM] | melting point [°C] | IC50 (HeLa; [2]) [µM] | IC50 at 48 h [1, 3] [µM] | IC50 (A549; [4]) [µM] | IC50 (HepG2; [5]) [µM] | IC50 (HeLa) [µM] | IC50 at 48 h [1] [µM] | IC50 (A549; A549, 48 h) [µM] | IC50 (HepG2; HepG2, 48 h) [µM] |
| --- | --- | --- | --- | --- | --- | --- | --- | --- | --- | --- |
| COC(=O)C1c2[nH]c3ccccc3c2CCN1C(=O)c1ccc(F)cc1 (stereo not drawn) [Compound 6a, Methyl-2-(4-fluorobenzoyl)-2,3,4,9-tetrahydro-1H-pyrido [3,4-b] indole-1-carboxylate] | 29.6 | 182.8 to 183.7 | 28.4 ± 1.12 | 253 ± 33.2 | 38.3 ± 2.53 | 31.6 ± 2.53 |  |  |  |  |
| COC(=O)C1c2[nH]c3ccccc3c2CCN1C(=O)c1ccc(OC)cc1 (stereo not drawn) [Compound 6b, Methyl-2-(4-methoxybenzoyl)-2,3,4,9-tetrahydro-1H-pyrido [3,4-b] indole-1-carboxylate] | 25.7 | 200.8 to 201.6 | 14.1 ± 2.69 | 267 ± 28.9 | 13.2 ± 1.21 | 26.3 ± 1.88 |  |  |  |  |
| COC(=O)C1c2[nH]c3ccccc3c2CCN1C(=O)c1ccc(-c2ccccc2)cc1 (stereo not drawn) [Compound 6c, Methyl-2-([1, 1’-biphenyl]-4-carbonyl)-2,3,4,9-tetrahydro-1H-pyrido [3,4-b] indole-1 carboxylate] | 1.89 | 177.8 to 179.6 | 1.03 ± 0.19 | 312 ± 56.1 | 6.53 ± 1.65 | 5.21 ± 0.58 |  |  |  |  |
| COC(=O)C1c2[nH]c3ccccc3c2CCN1C(=O)c1ccc(I)cc1 (stereo not drawn) [Compound 6d, Methyl-2-(4-iodobenzoyl)-2,3,4,9-tetrahydro-1H-pyrido [3,4-b] indole-1-carboxylate] | 30.3 | 195.6 to 196.5 | 19.4 ± 2.56 | 373 ± 62.8 | 10.8 ± 1.17 | 33.4 ± 5.18 |  |  |  |  |
| COC(=O)C1c2[nH]c3ccccc3c2CCN1C(=O)c1ccccc1 (stereo not drawn) [Compound 6e, Methyl-2-benzoyl-2,3,4,9-tetrahydro-1H-pyrido [3,4-b] indole-1-carboxylate] | 20.7 |  | 16.8 ± 4.12 | 118 ± 12.9 | 15.5 ± 1.26 | 31.8 ± 2.86 |  |  |  |  |
| COC(=O)C1c2[nH]c3ccccc3c2CCN1C(=O)c1ccc(C(F)(F)F)cc1 (stereo not drawn) [Compound 6f, Methyl-2-(4-(trifluoromethyl)benzoyl)-2,3,4,9-tetrahydro-1H-pyrido [3,4-b] indole-1-carboxylate] | 39.6 | 193.3 to 194.36 | 29.9 ± 4.73 | 125 ± 26.1 | 38.7 ± 7.25 | 35.8 ± 3.23 |  |  |  |  |
| COC(=O)C1c2[nH]c3ccccc3c2CCN1C(=O)c1ccc(Cl)cc1 (stereo not drawn) [Compound 6g, Methyl 2-(4-chlorobenzoyl)-2,3,4,9-tetrahydro-1H-pyrido[3,4-b] indole-1-carboxylate] | 27.5 | 200.3 to 201.5 | 22.9 ± 2.31 | 375 ± 60 | 25.7 ± 8.78 | 13.7 ± 2.13 |  |  |  |  |
| COC(=O)C1c2[nH]c3ccccc3c2CCN1C(=O)c1ccc2ccccc2c1 (stereo not drawn) [Compound 6h, Methyl-2-(2-naphthoyl)-2,3,4,9-tetrahydro-1H-pyrido [3,4-b] indole-1-carboxylate] | 12.4 | 183.6 to 184.5 | 10.8 ± 2.69 | 186 ± 12.4 | 12.7 ± 1.2 | 19.5 ± 0.43 |  |  |  |  |
| COC(=O)C1c2[nH]c3ccccc3c2CCN1C(=O)c1ccc2c(c1)OCO2 (stereo not drawn) [Compound 6i, Methyl-2-(benzo [d] [1,3]dioxole-5-carbonyl)-2,3,4,9-tetrahydro-1H-pyrido [3,4-b] indole-1-carboxylate] | 3.38 | 165.3 to 166.7 | 3.57 ± 0.93 | 247 ± 10.9 | 9.6 ± 3.22 | 12.2 ± 3.01 |  |  |  |  |
| O=C1c2ccccc2-[n+]2ccc3c([nH]c4ccccc43)c21 [Fascaplysin] | 0.79 ± 0.72 |  |  |  |  |  | 0.56 ± 0.05 | 1.86 ± 0.17 | 1.05 ± 0.08 | 0.24 ± 0.04 |

Continued, in another order:

| IC50 (CDK4/CycD3) [µM] | melting point [°C] | Structure (SMILES) | IC50 (HeLa; [2]) [µM] | IC50 at 48 h [1, 3] [µM] | IC50 (A549; [4]) [µM] | IC50 (HepG2; [5]) [µM] | IC50 (HeLa) [µM] | IC50 at 48 h [1] [µM] | IC50 (A549; A549, 48 h) [µM] | IC50 (HepG2; HepG2, 48 h) [µM] |
| --- | --- | --- | --- | --- | --- | --- | --- | --- | --- | --- |
| 31.6 | 199.5 to 201.7 | CCOC(=O)C1c2[nH]c3ccccc3c2CCN1C(=O)c1ccc(F)cc1 (stereo not drawn) [Compound 7a, Ethyl-2-(4-fluorobenzoyl)-2,3,4,9-tetrahydro-1H-pyrido [3,4-b] indole-1-carboxylate] | 29.6 ± 7.07 | 255 ± 86.3 | 39.5 ± 4.98 | 47.5 ± 4.11 |  |  |  |  |
| 30.7 | 206.9 to 209.8 | CCOC(=O)C1c2[nH]c3ccccc3c2CCN1C(=O)c1ccc(OC)cc1 (stereo not drawn) [Compound 7b, Ethyl-2-(4-methoxybenzoyl)-2,3,4,9-tetrahydro-1H-pyrido [3,4-b] indole-1-carboxylate] | 15.4 ± 3.1 | 429 ± 38.9 | 15.5 ± 13.4 | 41.5 ± 2.42 |  |  |  |  |
| 4.89 | 201.4 to 201.8 | CCOC(=O)C1c2[nH]c3ccccc3c2CCN1C(=O)c1ccc(-c2ccccc2)cc1 (stereo not drawn) [Compound 7c, Ethyl 2-([1, 1’-biphenyl]-4-carbonyl)-2,3,4,9-tetrahydro-1H-pyrido [3,4-b] indole-1 carboxylate] | 4.71 ± 0.7 | 281 ± 7.81 | 10.5 ± 1.5 | 10.8 ± 1.49 |  |  |  |  |
| 35.3 | 175.6 to 176.3 | CCOC(=O)C1c2[nH]c3ccccc3c2CCN1C(=O)c1ccc(I)cc1 (stereo not drawn) [Compound 7d, Ethyl-2-(4-iodobenzoyl)-2,3,4,9-tetrahydro-1H-pyrido[3,4-b] indole-1-carboxylate] | 27.6 ± 2.38 | 183 ± 17.9 | 20.4 ± 2.68 | 28.2 ± 0.95 |  |  |  |  |
| 29.7 | 196.5 to 198.6 | CCOC(=O)C1c2[nH]c3ccccc3c2CCN1C(=O)c1ccccc1 (stereo not drawn) [Compound 7e, Ethyl-2-benzoyl-2,3,4,9-tetrahydro-1H-pyrido [3,4-b] indole-1-carboxylate] | 19.9 ± 2.45 | 99.8 ± 9.97 | 27.3 ± 6.5 | 21.4 ± 1.69 |  |  |  |  |
| 43.9 |  | CCOC(=O)C1c2[nH]c3ccccc3c2CCN1C(=O)c1ccc(C(F)(F)F)cc1 (stereo not drawn) [Compound 7f, Ethyl-2-(4-(trifluoromethyl)benzoyl)-2,3,4,9-tetrahydro-1H-pyrido [3,4-b] indole-1-carboxylate] | 47 ± 4.8 | 183 ± 17.9 | 42.1 ± 7.6 | 16.2 ± 3.72 |  |  |  |  |
| 30.4 | 232.3 to 233.5 | CCOC(=O)C1c2[nH]c3ccccc3c2CCN1C(=O)c1ccc(Cl)cc1 (stereo not drawn) [Compound 7g, Ethyl-2-(4-chlorobenzoyl)-2,3,4,9-tetrahydro-1H-pyrido[3,4-b] indole-1-carboxylate] | 24.9 ± 3.44 | 200 ± 9.97 | 27.3 ± 2.4 | 41.4 ± 1.69 |  |  |  |  |
| 16.4 | 209.6 to 211.5 | CCOC(=O)C1c2[nH]c3ccccc3c2CCN1C(=O)c1ccc2ccccc2c1 (stereo not drawn) [Compound 7h, Ethyl-2-(2-naphthoyl)-2,3,4,9-tetrahydro-1H-pyrido [3,4-b] indole-1-carboxylate] | 16.5 ± 6.64 | 183 ± 13.2 | 25.5 ± 3.92 | 17.5 ± 13.8 |  |  |  |  |
| 9.38 ± 1.79 | 202.5 to 204.6 | CCOC(=O)C1c2[nH]c3ccccc3c2CCN1C(=O)c1ccc2c(c1)OCO2 (stereo not drawn) [Compound 7i, Ethyl-2-(benzo [d] [1,3]dioxole-5-carbonyl)-2,3,4,9-tetrahydro-1H-pyrido [3,4-b] indole-1-carboxylate] | 6.18 ± 2.78 | 256 ± 56 | 20 ± 5.57 | 23.2 ± 9.17 |  |  |  |  |
